Like-named read-outs stand apart in the source and are kept apart here.
Columns and labels:
[1] = tested on: secretion of gastric fluids; assay: anti-secretory activity in pylorus-ligated rats (method of Shay et al.); assay type: in vivo, male albino Wistar rats
Method: In standard biological test procedures, described generally by Shay et al., Gastroenterology 5, 43 (1945) and 26, 906 (1954) and by Selmici et al., Acta Physiol. Acad. Sci. Hung. […] Anti-secretory activity was determined in male albino Wistar rats weighing approximately 180 g. using the method described by Shay et al. which is described as follows: the rats were divided into medicated groups of at least five rats each and control groups of ten rats. The rats were medicated orally once daily for 2 days prior to stomach ligation and once again immediately following ligation. All drugs were administered as the free base, and control rats received only the vehicle of medication. The rats were housed individually in wire cages, food was withdrawn 48 hours prior to surgery, and water was withdrawn at the time of surgery. Laparotomy was performed under light ether anesthesia, the pyloric-duodenal junction was ligated, and the wound was closed with metal clips and sprayed with a protective surgical dressing. Five hours following surgery, the rats were sacrificed, the stomach was removed, and the gastric juice collected. The gastric fluid was centrifuged, the total volume, color, and volume of solids were recorded. The pH of the gastric fluid was then determined on a Beckman pH meter, and the "free" and "total" hydrochloric acid content of each gastric sample was determined by titrating an aliquot of the gastric fluid (diluted to approximately 10 ml. with distilled water) by titrating with 0.1N sodium hydroxide against Toepfers reagent and phenolphthalein, respectively. By determining the milliequivalents of hydrochloric acid per milliliter of gastric juice and knowing the total volume of gastric juice secreted by each rat, the total acid output can be calculated. Since pH is a function of "free" acid, the activity of the test compounds can be evaluated by comparison of the mean "free" acid of medicated rats with the mean "free" acid of the controls, and the activity can thus be expressed in terms of percent inhibition of free acid.
(§1) Data obtained on administration of the compounds of formula I in rats in the anti-secretory and anti-ulcer tests described above are given in the table below. Unless noted otherwise, data were obtained on oral administration. Results in the anti-secretory activity tests are given in terms of the pH of the gastric fluid in the test animals and the percent inhibition of free acid, while results in the anti-ulcer test are given either in terms of the percent inhibition of ulcers or as a ratio representing the number of animals with ulcers (as the numerator) to the total number of animals in the test group (as the denominator). All doses are expressed in mg./kg.

[2] = tested on: reserpine-induced stomach ulceration; assay: anti-ulcer activity, reserpine-induced ulcer test (method of Selmici et al.); assay type: in vivo, male, albino, Sprague-Dawley rats; settings: for inhibition in vivo at 100 mg/kg / Anti-Ulcer: ratio of number of animals with ulcers to total number of animals in the test group: 100 mg./kg.
Method: The anti-ulcer activity of the compounds was determined using the reserpine-induced anti-ulcer test method, described by Selmici et al., which is described briefly as follows: male, albino, Sprague-Dawley rats, weighing approximately 300 g., were divided into medicated and control groups of at least five rats each, and one positive control group of five rats medicated with a known drug at the active dose was run with each experiment. The rats were medicated forty-eight, twenty-four, and one hour before receiving an injection of reserpine. All test drugs were administered orally in terms of base, and the control rats received only the vehicle of medication. The rats were housed individually in wire cages, and food was withdrawn 24 hours prior to injection of reserpine, while water was allowed ad libitum. One hour following the third medication, 5.0 mg. of reserpine per kilogram of body weight in a concentration of 5 mg./ml. was injected intramuscularly in each rat. Eighteen hours after injection the rats were sacrificed, their stomachs removed, opened along the greater curvature, rinsed in warm saline, and pinned to a cork board for gross observation. The stomachs were examined for the number and size of ulcerations located in the glandular portion of the stomach with the aid of a one millimeter grid ocular with a 10x dissecting microscope. The degree of ulceration was arbitrarily graded according to the number and size of the ulcers as follows:
The points were added together and divided by the number of rats in each group to give an ulcer score, and the difference in the mean scores of the medicated and control group was expressed as percent inhibition of ulceration. Alternatively, the results can be expressed as a ratio of the total number of rats with any degree of ulceration (as the numerator) to the total number of rats in the test group (as the denominator).
as §1

[3] = Rattus norvegicus, 5 h, oral, 100 mg./kg., read-out: % Inhibition of Free Acid
[4] = Rattus norvegicus, po, 5 h, oral, 100 mg./kg., read-out: % Inhibition of Free Acid
[5] = Rattus norvegicus, intraduodenal, 5 h, i.d., 100 mg./kg., read-out: % Inhibition of Free Acid
[6] = Rattus norvegicus, ip, 5 h, i.p., 100 mg./kg., read-out: % Inhibition of Free Acid
[7] = Rattus norvegicus, sc, 5 h, s.c., 100 mg./kg., read-out: % Inhibition of Free Acid

Row | SMILES | pH of the gastric fluid ([1]; oral, 100 mg./kg.) | inhibition in vivo at 100 mg/kg ([2]; Rattus norvegicus, 18 h, oral) | inhibition in vivo at 100 mg/kg [1, 4] | inhibition in vivo at 25 mg/kg ([2]; Rattus norvegicus, 18 h, oral) | also measured
1 | Cc1c(C=O)c2ccccc2n1CCCC(N)=O [Example 4J, γ-(2-Methyl-3-formyl-1-indole)butyramide] | 1.2 | 26% | – | – | inhibition in vivo at 100 mg/kg [1, 3]: 17%
2 | Cc1c(C)n(CCC(=O)N(C)C)c2ccccc12 [Example 2, β-(2,3-dimethyl-1-indole)-N,N-dimethylpropionamide] | 4.4 | – | 93% | 34% | –
3 | Cc1cn(CC(N)=O)c2ccccc12 [Reference, 3-methyl-1-indole-acetamide, reference compound] | 2.3 | 75% | 62% | – | anti-secretory activity (in words) ([1]; rat, in vivo): has anti-secretory and anti-ulcer activities; anti-ulcer activity (in words) ([2]; rat, in vivo): has anti-secretory and anti-ulcer activities
4 | Cc1c(CO)n(CCC(N)=O)c2ccccc12 [Example 8G, β-(2-hydroxymethyl-3-methyl-1-indole)propionamide] | 1.3 | – | 22% | – | inhibition in vivo at 100 mg/kg [1, 5]: 33%; inhibition in vivo at 100 mg/kg [1, 6]: 34%; pH of the gastric fluid ([1]; i.d., 100 mg./kg.): 1.4; pH of the gastric fluid ([1]; i.p., 100 mg./kg.): 1.7; Anti-Ulcer: ratio of number of animals with ulcers to total number of animals in the test group ([2]; oral): 3/5
5 | Cc1c(C=O)c2ccccc2n1CCC(N)=O [Example 4F, β-(2-Methyl-3-formyl-1-indole)propionamide] | 1.2 | 9% | – | – | inhibition in vivo at 100 mg/kg [1, 3]: 0%
6 | Cc1c(C)n(CC(N)=S)c2ccccc12 [Example 7A, 2,3-dimethyl-1-indolethioacetamide] | 2.3 | – | 58% | 75% | –
7 | Cc1c(C)n(CC(=O)NO)c2ccccc12 [Example 3B, 2,3-Dimethyl-1-indoleacetohydroxamic acid] | – | 99% | 20% | – | –
8 | CCc1c(C)c2ccccc2n1CCC(N)=O [Example 4D, β-(2-Ethyl-3-methyl-1-indole)propionamide] | 4.1 | 97% | 88% | – | –
9 | Cc1c(C)n(CCCC(N)=O)c2ccccc12 [Example 1D, γ-(2,3-Dimethyl-1-indole)butyramide] | 6.2 | 99% | 100% | 72% | inhibition in vivo at 6.25 mg/kg ([1]; Rattus norvegicus, po, 5 h, oral, 6.25 mg./kg., read-out: % Inhibition of Free Acid): 14%; inhibition in vivo at 25 mg/kg ([1]; Rattus norvegicus, po, 5 h, oral, 25 mg./kg., read-out: % Inhibition of Free Acid): 38%; pH of the gastric fluid ([1]; oral, 6.25 mg./kg.): 1.3; pH of the gastric fluid ([1]; oral, 25 mg./kg.): 1.6; inhibition in vivo at 0.8 mg/kg ([2]; Rattus norvegicus, 18 h, oral, 0.8 mg./kg.): 38%; inhibition in vivo at 1.56 mg/kg ([2]; Rattus norvegicus, 18 h, oral, 1.56 mg./kg.): 38%; inhibition in vivo at 6.25 mg/kg ([2]; Rattus norvegicus, 18 h, oral): 0%
10 | Cc1c(CO)c2ccccc2n1CCCC(N)=O [Example 8B, γ-(2-Methyl-3-hydroxymethyl-1-indole)butyramide] | 1.3 | 0% | 5% | – | inhibition in vivo at 100 mg/kg [1, 5]: 5%; inhibition in vivo at 100 mg/kg [1, 6]: 62%; inhibition in vivo at 100 mg/kg [1, 7]: 12%; pH of the gastric fluid ([1]; i.d., 100 mg./kg.): 1.2; pH of the gastric fluid ([1]; i.p., 100 mg./kg.): 2.4; pH of the gastric fluid ([1]; s.c., 100 mg./kg.): 1.2
11 | CCc1c(C)n(CCC(N)=O)c2ccccc12 [Example 4E, β-(2-Methyl-3-ethyl-1-indole)propionamide] | 3.4 | 93% | 42% | 80% | inhibition in vivo at 6.25 mg/kg ([2]; Rattus norvegicus, 18 h, oral): 60%; inhibition in vivo at 12.5 mg/kg ([2]; Rattus norvegicus, 18 h, oral, 12.5 mg./kg.): 72%; inhibition in vivo at 50 mg/kg ([2]; Rattus norvegicus, 18 h, oral): 94%
12 | Cc1c(C)n(CCC(=O)NCCCO)c2ccccc12 [Example 3E, β-(2,3-Dimethyl-1-indole)-N-(3-hydroxypropyl)propionamide] | 1.4 | – | 34% | 51% | –
13 | Cc1c(-c2ccccc2)n(CCC(N)=O)c2ccccc12 [Example 4M, β-(2-Phenyl-3-methyl-1-indole)propionamide] | 1.1 | – | 20% | – | inhibition in vivo at 100 mg/kg [1, 5]: 34%; inhibition in vivo at 100 mg/kg [1, 6]: 43%; pH of the gastric fluid ([1]; i.d., 100 mg./kg.): 1.2; pH of the gastric fluid ([1]; i.p., 100 mg./kg.): 1.7; Anti-Ulcer: ratio of number of animals with ulcers to total number of animals in the test group ([2]; oral): 0/5
14 | Cc1c(C=O)c2ccccc2n1CC(N)=O [Example 6, 2-methyl-3-formyl-1-indoleacetamide] | 1.1 | 0% | – | – | inhibition in vivo at 100 mg/kg [1, 3]: 0%
15 | Cc1c(C)n(CCC(N)=O)c2ccc(F)cc12 [Example 4C, β-(2,3-Dimethyl-5-fluoro-1-indole)propionamide] | 5.9 | – | 97% | 94% | –
16 | Cc1c(C)n(CCC(=O)NO)c2ccccc12 [Example 3F, β-(2,3-Dimethyl-1-indole)propionohydroxamic acid] | 1.3 | – | 34% | – | inhibition in vivo at 50 mg/kg ([2]; Rattus norvegicus, 18 h, oral): 95%
17 | CCc1c(C)c2ccccc2n1CC(N)=O [Example 1C, 2-Ethyl-3-methyl-1-indoleacetamide] | 2.8 | 96% | 50% | 84% | –
18 | Cc1c(CO)c2ccccc2n1CCC(N)=O [Example 8A, β-(2-methyl-3-hydroxymethyl-1-indole)propionamide] | 1.9 | 56% | 69% | – | inhibition in vivo at 100 mg/kg [1, 5]: 100%; inhibition in vivo at 100 mg/kg [1, 6]: 100%; inhibition in vivo at 100 mg/kg [1, 7]: 100%; pH of the gastric fluid ([1]; i.d., 100 mg./kg.): 5.6; pH of the gastric fluid ([1]; i.p., 100 mg./kg.): 7.0; pH of the gastric fluid ([1]; s.c., 100 mg./kg.): 6.7
19 | Cc1c(C)n(CCC(=O)NCCO)c2ccccc12 [Example 3D, β-(2,3-Dimethyl-1-indole)-N-(2-hydroxyethyl)propionamide] | 1.2 | – | – | 48% | –
20 | Cc1c(C(=O)C(F)(F)F)c2ccccc2n1CCC(N)=O [Example 4L, β-(2-Methyl-3-trifluoroacetyl-1-indole)propionamide] | 1.8 | – | – | – | inhibition in vivo at 100 mg/kg [1, 3]: 46%; inhibition in vivo at 100 mg/kg [1, 5]: 65%; inhibition in vivo at 100 mg/kg [1, 6]: 78%; pH of the gastric fluid ([1]; i.d., 100 mg./kg.): 2.5; pH of the gastric fluid ([1]; i.p., 100 mg./kg.): 3.8
